Values joined by “and” are separate entries in the source; they are usually repeats but may differ in a detail not shown here. Equal entries are not always repeated.
Details: Fluid (supercritical or subcritical phases), Buoyancy - hydrostatic balance with magnetic suspension - two sinkers

CCC [propane]
Details | mass density
265 K, 2141.2 kPa | 542.504 kg/m3
265 K, 2141.4 kPa | 542.503 kg/m3
265 K, 2144 kPa | 542.507 kg/m3 and 542.508 kg/m3
265 K, 2144.3 kPa | 542.51 kg/m3
265 K, 2144.8 kPa | 542.509 kg/m3
265 K, 2145 kPa | 542.509 kg/m3
265 K, 3759.4 kPa | 545.171 kg/m3
265 K, 3760 kPa | 545.17 kg/m3
265 K, 3760.5 kPa | 545.17 kg/m3
265 K, 3766.3 kPa | 545.182 kg/m3
265 K, 3771.8 kPa | 545.194 kg/m3
265 K, 4142.6 kPa | 545.789 kg/m3
265 K, 4145 kPa | 545.794 kg/m3
265 K, 4149.1 kPa | 545.797 kg/m3
265 K, 4150.8 kPa | 545.802 kg/m3
265 K, 8329.8 kPa | 552.117 kg/m3
265 K, 8330.5 kPa | 552.12 kg/m3
265 K, 8330.7 kPa | 552.117 kg/m3
265 K, 8331.9 kPa | 552.121 kg/m3
265 K, 8332.3 kPa | 552.121 kg/m3
265 K, 12135 kPa | 557.342 kg/m3
265 K, 12136 kPa | 557.343 kg/m3
265 K, 12137 kPa | 557.343 kg/m3
265 K, 16242 kPa | 562.533 kg/m3
265 K, 16243 kPa | 562.535 kg/m3
265 K, 16245 kPa | 562.537 kg/m3
265 K, 16246 kPa | 562.537 kg/m3
265 K, 20184 kPa | 567.153 kg/m3 and 567.155 kg/m3
265 K, 20189 kPa | 567.157 kg/m3
265 K, 20190 kPa | 567.159 kg/m3
265 K, 20191 kPa | 567.16 kg/m3
265 K, 24029 kPa | 571.368 kg/m3
265 K, 24030 kPa | 571.371 kg/m3
265 K, 24031 kPa | 571.373 kg/m3 and 571.369 kg/m3
265 K, 30007 kPa | 577.453 kg/m3 and 577.455 kg/m3 and 577.457 kg/m3
265 K, 30010 kPa | 577.458 kg/m3 and 577.459 kg/m3
265 K, 34915 kPa | 582.091 kg/m3
265 K, 34916 kPa | 582.091 kg/m3 and 582.092 kg/m3 and 582.09 kg/m3
280 K, 2010.8 kPa | 522.313 kg/m3
280 K, 2011 kPa | 522.314 kg/m3
280 K, 2012.2 kPa | 522.319 kg/m3
280 K, 2013 kPa | 522.322 kg/m3
280 K, 2016.3 kPa | 522.324 kg/m3
280 K, 2020 kPa | 522.336 kg/m3
280 K, 2020.8 kPa | 522.337 kg/m3
280 K, 2021.2 kPa | 522.338 kg/m3
280 K, 2021.3 kPa | 522.335 kg/m3
280 K, 2021.4 kPa | 522.337 kg/m3
280 K, 4077.8 kPa | 526.538 kg/m3
280 K, 4078.2 kPa | 526.542 kg/m3
280 K, 4078.3 kPa | 526.539 kg/m3
280 K, 4078.4 kPa | 526.539 kg/m3
280 K, 8037.8 kPa | 533.834 kg/m3
280 K, 8038.9 kPa | 533.835 kg/m3
280 K, 8039.6 kPa | 533.833 kg/m3
280 K, 8040 kPa | 533.836 kg/m3
280 K, 8040.4 kPa | 533.836 kg/m3
280 K, 12164 kPa | 540.567 kg/m3
280 K, 12165 kPa | 540.568 kg/m3
280 K, 12166 kPa | 540.568 kg/m3
280 K, 12167 kPa | 540.57 kg/m3
280 K, 16052 kPa | 546.301 kg/m3 and 546.302 kg/m3
280 K, 16053 kPa | 546.299 kg/m3 and 546.301 kg/m3
280 K, 16054 kPa | 546.301 kg/m3
280 K, 20169 kPa | 551.856 kg/m3
280 K, 20170 kPa | 551.857 kg/m3
280 K, 20171 kPa | 551.857 kg/m3
280 K, 20173 kPa | 551.86 kg/m3
280 K, 24174 kPa | 556.843 kg/m3
280 K, 24175 kPa | 556.845 kg/m3
280 K, 24178 kPa | 556.848 kg/m3
280 K, 29900 kPa | 563.396 kg/m3 and 563.395 kg/m3
280 K, 29902 kPa | 563.397 kg/m3 and 563.398 kg/m3
280 K, 35491 kPa | 569.254 kg/m3
280 K, 35492 kPa | 569.255 kg/m3
280 K, 35494 kPa | 569.255 kg/m3
280 K, 35496 kPa | 569.259 kg/m3
300 K, 2095.9 kPa | 492.916 kg/m3
300 K, 2096.6 kPa | 492.92 kg/m3
300 K, 2096.7 kPa | 492.918 kg/m3
300 K, 2096.8 kPa | 492.918 kg/m3
300 K, 2097 kPa | 492.917 kg/m3
300 K, 4036.5 kPa | 498.494 kg/m3
300 K, 4037.2 kPa | 498.496 kg/m3
300 K, 4037.3 kPa | 498.493 kg/m3
300 K, 4037.4 kPa | 498.494 kg/m3
300 K, 8037.7 kPa | 508.391 kg/m3
300 K, 8038 kPa | 508.393 kg/m3
300 K, 8038.1 kPa | 508.394 kg/m3
300 K, 8038.4 kPa | 508.391 kg/m3
300 K, 8038.7 kPa | 508.393 kg/m3
300 K, 12024 kPa | 516.758 kg/m3
300 K, 12025 kPa | 516.758 kg/m3 and 516.759 kg/m3
300 K, 16033 kPa | 524.122 kg/m3 and 524.123 kg/m3
300 K, 16035 kPa | 524.125 kg/m3
300 K, 16037 kPa | 524.128 kg/m3
300 K, 20366 kPa | 531.21 kg/m3
300 K, 20369 kPa | 531.216 kg/m3
300 K, 20370 kPa | 531.214 kg/m3
300 K, 23908 kPa | 536.474 kg/m3 and 536.475 kg/m3
300 K, 23909 kPa | 536.476 kg/m3
300 K, 23911 kPa | 536.479 kg/m3
300 K, 29891 kPa | 544.528 kg/m3
300 K, 29892 kPa | 544.529 kg/m3 and 544.528 kg/m3
300 K, 35152 kPa | 550.916 kg/m3
300 K, 35153 kPa | 550.918 kg/m3 and 550.916 kg/m3
300 K, 35154 kPa | 550.917 kg/m3
310 K, 261.67 kPa | 4.6501 kg/m3
310 K, 261.68 kPa | 4.6501 kg/m3 and 4.6502 kg/m3
310 K, 261.69 kPa | 4.6502 kg/m3
310 K, 460.64 kPa | 8.455 kg/m3 and 8.4548 kg/m3 and 8.4549 kg/m3
310 K, 760.19 kPa | 14.7402 kg/m3
310 K, 760.2 kPa | 14.7403 kg/m3
310 K, 760.25 kPa | 14.7415 kg/m3
310 K, 760.28 kPa | 14.7419 kg/m3 and 14.7421 kg/m3

Reference: the NIST ThermoML archive (doi:10.1021/je900124n)
